In patent US20190275010A1, “COMBINATION THERAPY COMPRISING A THIAZOLE AND A SECOSTEROID TO TREAT SKIN CONDITIONS” (Avexxin AS, priority 2016, published 2019):
Entries after “also recorded” stand apart in the source; their conditions may differ.

System: HaCaT cells
Test: Resazurin assay, HaCaT keratinocyte cell viability
Type: cell-based, human
Conditions: for effect on cell viability at 10 μM: single agent 10 μM, 24 hours (FIG. 1); for concentration at which the compound was found to reduce cell viability: single agent dose response, 24 hours treatment, resazurin (FIG. 1)
Description: The spontaneously immortalized, nontumorigenic skin keratinocyte cell line HaCaT was maintained in DMEM supplemented with 5% (v/v) FBS, 0.3 mg/ml glutamine and 0.1 mg/ml gentamicin at 37° C. with 5% CO2 in a humidified atmosphere. Subculture using trypsin-EDTA was performed every 3-4 days with split ratio of 1:3-1:4 to ensure actively proliferating cells.
Cells were seeded in 96 well plates in fully supplemented medium at a density of 3000 cells per well. Following 72 hour of cultivation, the cells were starved of serum in 0.25% FBS/DMEM overnight to halt proliferation, synchronize the cells and to increase cell sensitivity to treatment. Next day, the cells were treated with cPLA2α inhibitor Compound B, Compound A, vitamin D analogue Calcipotriol and corticosteroid hormone receptor agonist Betamethasone dipropionate for 24 hours. Resazurin was added next day according to the manufacturer's instruction (RnD Systems, UK) and left to incubate for […] in incubator at 37° C. with 5% CO2 in a humidified atmosphere before fluorescence was read at 544 nm excitation and 590 nm emission wavelength. The cells were observed under the microscope to evaluate possible morphology changes and signs of stress before addition of resazurin. The experiments were performed in series of 8 wells per treatment and repeated 3 times.

SMILES	effect on cell viability at 10 μM	concentration at which the compound was found to reduce cell viability
C=C1/C(=C\C=C2/CCC[C@]3(C)[C@@H]([C@H](C)/C=C/[C@@H](O)C4CC4)CC[C@@H]23)C[C@@H](O)C[C@@H]1O [Calcipotriol]	no signs of impairment in cell viability; also recorded: no toxicity	15 µM
CCCCCCCOc1ccc(OCC(=O)c2nc(C(=O)OC)cs2)cc1 [Compound A1]	no toxicity	20 µM
